Converted amounts (≈) assume the structure as drawn. Read-outs that look alike come from different tables or passages of the source.
What was measured:
[1] = test system: Candida albicans ATCC 10231; experiment: broth microdilution MIC/MFC; assay type: cell-based
Candida krusei ATCC 6258 = experiment: broth microdilution MIC/MFC; assay type: cell-based; conditions: Pichia kudriavzevii, ATCC6258
[2] = test system: Candida albicans ATCC 18804; experiment: broth microdilution MIC/MFC; assay type: cell-based
[3] = test system: Candida parapsilosis ATCC 22019; experiment: broth microdilution MIC/MFC; assay type: cell-based; conditions: Lodderomyces parapsilosis, ATCC22019
[4] = test system: Candida albicans ATCC 10231; experiment: cup-plate agar diffusion method, inhibition zone diameters; assay type: cell-based
[5] = lipophilicity by RP-TLC with PCA; assay type: physicochemical; set-up: key to P1 / P2: PCA scores of compounds computed from Rf data; conditions: for RM0: RP-TLC C18, water-i-propanol 45-65%, intercept, RM extrapolated to 0% organic modifier (lipophilicity); for b: RP-TLC regression slope (specific hydrophobic surface area); for P1: score of first principal component of Rf data, low P1 = highly lipophilic; for P2: score of second principal component of Rf data
Description: The lipophilic character of twenty thiazolin-4-one derivatives was assessed with the help of the principal component analysis (PCA) based on the reversed-phase thin-layer chromatography (RP-TLC) data.
The chromatographic behavior of the test compounds was studied on C18 silicagel bonded 60 RP-180F254S TLC (20 × 20 cm) plates, purchased from Merck (Darmstadt, Germany). The test compounds’ solutions (1 mg/mL) were prepared by dissolving the samples in DMSO (Merck, Darmstadt, Germany). The plates were manually spotted with 3 µL aliquots of each solution at 10 mm from the base and 5 mm from the edge of the plate, leaving a 10 mm distance between successive spots, and developed by the ascending technique, without preconditioning. Chromatography was performed in a normal developing chamber at room temperature (~24 °C), the developing distance being of 9 cm. The solvent system used as mobile phase consisted of a water-i-propanol mixture, with a varying content of organic modifier (i-propanol—concentration ranged between 45% and 65% (v/v), with 5% vol. increments). Before the development, the chamber was saturated with the mobile phase for 15 min. After being developed, the dried plates were visually inspected under the UV light (λ = 254 nm), each spot was clearly marked and its distance was manually measured in order to calculate the Rf values. The spots of the compounds 3f, 10 and 11 were not visible in UV light, thus their Rf values could not be calculated, therefore they were excluded from this assay.
Based on the Rf values, one of the most common lipophilic estimator, meaning the isocratic retention factor RM was calculated using the Bate-Smith and Westall equations [40].
RP-TLC provides retention data in the form of Rf and the corresponding RM values (Equation (2)) that can be used to derive chromatographic descriptors for estimating lipophilicity: RM0, b and PCA. The most popular lipophilicity descriptor estimated by this method is RM and it is derived from the retention factor (Rf) according to the following formula: RM = log[(1/Rf) − 1] (2) where Rf is calculated on the basis of migration distance of a compound and the solvent front.
As RM value (related to the molecular lipophilicity) depends linearly on the concentration of the organic modifier in the mobile phase, the value is extrapolated to pure water as mobile phase. In order to increase the accuracy of the lipophilicity determination, the RM values extrapolated to zero organic modifier concentration (RM0) have been calculated from the linear correlation between the RM values and the concentration of the organic component of the mobile phase: RM = RM0 + bc (3) where RM0 is the lipophilicity estimation parameter, RM is the retention of the solute, b is the slope, and c is the concentration of the mobile phase organic modifier (i-propanol).
The intercept (RM0) in Equation (3) represents the extrapolated RM values at 0% organic modifier.
PCA was performed on the obtained retention parameters with the help of XL-STAT extension. […] PCA gave the coordinates (scores) of the studied compounds and also the loadings of the variables (solvents) on the principal components.

[6] = ATCC10231, C. albicans ATCC 10231, read-out: MFC
[7] = ATCC10231, C. albicans ATCC 10231, read-out: MIC
[8] = C. krusei ATCC 6258, read-out: MFC
[9] = C. krusei ATCC 6258, read-out: MIC
[10] = ATCC18804, C. albicans ATCC 18804, read-out: MFC
[11] = ATCC18804, C. albicans ATCC 18804, read-out: MIC
[12] = C. parapsilosis ATCC 22019, read-out: MFC
[13] = C. parapsilosis ATCC 22019, read-out: MIC
[14] = ATCC10231, C. albicans ATCC 10231, 1 mg/mL in DMSO, 20 µg/well, mean of three ± SD, read-out: inhibition zone diameters

Structure (SMILES)	MFC [1, 6]	MIC [1, 7]	MFC (Candida krusei ATCC 6258; [8])	MIC (Candida krusei ATCC 6258; [9])	MFC [2, 10]	MIC [2, 11]	melting point	MFC [3, 12]	MIC [3, 13]	zone of inhibition at 1000 µg/mL [4, 14]	RM0 [5]	b [5]	P1 [5]	P2 [5]	other results
C=CCNC1=NC(=O)CS1 [Compound 2, 2-(allylamino)thiazol-4(5H)-one]	0.24 mg/L (≈ 1.54 µM)	0.12 mg/L (≈ 0.768 µM)	0.48 mg/L (≈ 3.07 µM)	0.24 mg/L (≈ 1.54 µM)	0.48 mg/L (≈ 3.07 µM)	0.24 mg/L (≈ 1.54 µM)	90 to 91 °C	0.24 mg/L (≈ 1.54 µM)	0.12 mg/L (≈ 0.768 µM)	20 ± 0.2 mm	0.0414	−1.1059	4.335	0.879	
C=CCNC1=NC(=O)C(=Cc2cccc(Cl)c2)S1 [Compound 3a, 2-(Allylamino)-5-(3-chlorobenzylidene)thiazol-4(5H)-one]	31.2 mg/L (≈ 112 µM)	31.2 mg/L (≈ 112 µM)	31.2 mg/L (≈ 112 µM)	15.6 mg/L (≈ 56 µM)	31.2 mg/L (≈ 112 µM)	15.6 mg/L (≈ 56 µM)	198 °C	15.6 mg/L (≈ 56 µM)	7.81 mg/L (≈ 28 µM)	20 ± 0.5 mm	2.0801	−3.6152	−0.090	−0.268	
C=CCNC1=NC(=O)C(=Cc2ccc(Cl)cc2Cl)S1 [Compound 3b, 2-(Allylamino)-5-(2,4-dichlorobenzylidene)thiazol-4(5H)-one]	31.2 mg/L (≈ 99.8 µM)	31.2 mg/L (≈ 99.8 µM)	31.2 mg/L (≈ 99.8 µM)	15.6 mg/L (≈ 49.9 µM)	15.6 mg/L (≈ 49.9 µM)	15.6 mg/L (≈ 49.9 µM)	238 °C	15.6 mg/L (≈ 49.9 µM)	7.81 mg/L (≈ 24.9 µM)	20 ± 0.5 mm	2.2398	−3.6102	−1.263	−0.062	
C=CCNC1=NC(=O)C(=Cc2ccc([N+](=O)[O-])cc2)S1 [Compound 3c, 2-(Allylamino)-5-(4-nitrobenzylidene)thiazol-4(5H)-one]	31.2 mg/L (≈ 108 µM)	31.2 mg/L (≈ 108 µM)	15.6 mg/L (≈ 54 µM)	15.6 mg/L (≈ 54 µM)	31.2 mg/L (≈ 108 µM)	31.2 mg/L (≈ 108 µM)	265 °C	31.2 mg/L (≈ 108 µM)	15.6 mg/L (≈ 54 µM)	18 ± 1 mm	1.7553	−3.314	1.049	−0.259	
C=CCNC1=NC(=O)C(=Cc2csc(-c3ccccc3)n2)S1 [Compound 3d, 2-(Allylamino)-5-((2-phenylthiazol-4-yl)methylene)thiazol-4(5H)-one]	62.5 mg/L (≈ 191 µM)	31.2 mg/L (≈ 95.4 µM)	31.2 mg/L (≈ 95.4 µM)	15.6 mg/L (≈ 47.7 µM)	62.5 mg/L (≈ 191 µM)	31.2 mg/L (≈ 95.4 µM)	339 °C	15.6 mg/L (≈ 47.7 µM)	7.81 mg/L (≈ 23.9 µM)	20 ± 0.2 mm	2.2119	−3.7366	−0.549	−0.241	
C=CCNC1=NC(=O)C(=Cc2coc3ccc(Cl)cc3c2=O)S1 [Compound 3e, 2-(Allylamino)-5-((6-chloro-4-oxo-4H-chromen-3-yl)methylene)thiazol-4(5H)-one]	62.5 mg/L (≈ 180 µM)	31.2 mg/L (≈ 90.1 µM)	31.2 mg/L (≈ 90.1 µM)	15.6 mg/L (≈ 45 µM)	31.2 mg/L (≈ 90.1 µM)	15.6 mg/L (≈ 45 µM)	299 to 301 °C	15.6 mg/L (≈ 45 µM)	7.81 mg/L (≈ 22.5 µM)	20 ± 0.5 mm	2.2869	−3.9184	−0.349	−0.354	
C=CCNC1=NC(=O)C(=Cc2cccc(Br)c2)S1 [Compound 3f, 2-(Allylamino)-5-(3-bromobenzylidene)thiazol-4(5H)-one]	3.9 mg/L (≈ 12.1 µM)	1.95 mg/L (≈ 6.03 µM)	7.81 mg/L (≈ 24.2 µM)	3.9 mg/L (≈ 12.1 µM)	15.6 mg/L (≈ 48.3 µM)	7.81 mg/L (≈ 24.2 µM)	330 °C	3.9 mg/L (≈ 12.1 µM)	1.95 mg/L (≈ 6.03 µM)	22 ± 0.2 mm					
C=CCNC1=NC(=O)C(=Cc2ccc(O)c(OC)c2)S1 [Compound 3g, 2-(Allylamino)-5-(4-hydroxy-3-methoxybenzylidene)thiazol-4(5H)-one]	1.95 mg/L (≈ 6.72 µM)	0.48 mg/L (≈ 1.65 µM)	1.95 mg/L (≈ 6.72 µM)	0.48 mg/L (≈ 1.65 µM)	0.97 mg/L (≈ 3.34 µM)	0.48 mg/L (≈ 1.65 µM)	240 °C	0.48 mg/L (≈ 1.65 µM)	0.24 mg/L (≈ 0.827 µM)	22 ± 0.2 mm	0.6734	−1.9546	3.365	0.453	
C=CCNC1=NC(=O)C(=Cc2ccc(O)cc2)S1 [Compound 3h, 2-(Allylamino)-5-(4-hydroxybenzylidene)thiazol-4(5H)-one]	0.48 mg/L (≈ 1.84 µM)	0.24 mg/L (≈ 0.922 µM)	0.97 mg/L (≈ 3.73 µM)	0.24 mg/L (≈ 0.922 µM)	0.97 mg/L (≈ 3.73 µM)	0.48 mg/L (≈ 1.84 µM)	338 °C	0.97 mg/L (≈ 3.73 µM)	0.12 mg/L (≈ 0.461 µM)	20 ± 0.5 mm	1.1465	−2.6897	2.905	0.056	
O=C1CSC(Nc2ccccc2)=N1 [Compound 5, 2-(phenylamino)thiazol-4(5H)-one]											0.9459	−2.2931	2.796	0.238	MFC ([1]; ATCC10231): 0.48 mg/L (≈ 2.5 µM); MIC ([1]; ATCC10231): 0.24 mg/L (≈ 1.25 µM); MFC (Candida krusei ATCC 6258): 0.12 mg/L (≈ 0.624 µM); MIC (Candida krusei ATCC 6258): 0.06 mg/L (≈ 0.312 µM); MFC ([2]; ATCC18804): 0.24 mg/L (≈ 1.25 µM); MIC ([2]; ATCC18804): 0.12 mg/L (≈ 0.624 µM); MFC [3]: 0.12 mg/L (≈ 0.624 µM); MIC [3]: 0.06 mg/L (≈ 0.312 µM); zone of inhibition at 1000 µg/mL ([4]; ATCC10231, read-out: inhibition zone diameters): 22 ± 0.5 mm
O=C1N=C(Nc2ccccc2)SC1=Cc1cccc(Cl)c1 [Compound 6a, 5-(3-Chlorobenzylidene)-2-(phenylamino)thiazol-4(5H)-one]	31.2 mg/L (≈ 99.3 µM)	15.6 mg/L (≈ 49.6 µM)	3.9 mg/L (≈ 12.4 µM)	7.81 mg/L (≈ 24.8 µM)	15.6 mg/L (≈ 49.6 µM)	7.81 mg/L (≈ 24.8 µM)	278 to 280 °C	3.9 mg/L (≈ 12.4 µM)	3.9 mg/L (≈ 12.4 µM)	20 ± 0.5 mm	2.1738	−3.9258	0.485	−0.534	
O=C1N=C(Nc2ccccc2)SC1=Cc1ccc(Cl)cc1Cl [Compound 6b, 5-(2,4-Dichlorobenzylidene)-2-(phenylamino)thiazol-4(5H)-one]	31.2 mg/L (≈ 89.5 µM)	15.6 mg/L (≈ 44.7 µM)	7.81 mg/L (≈ 22.4 µM)	7.81 mg/L (≈ 22.4 µM)	31.2 mg/L (≈ 89.5 µM)	15.6 mg/L (≈ 44.7 µM)	204 to 206 °C	3.9 mg/L (≈ 11.2 µM)	3.9 mg/L (≈ 11.2 µM)	20 ± 1 mm	2.4679	−4.0118	−1.253	−0.186	
O=C1CSC(Nc2cccc3ccccc23)=N1 [Compound 8, 2-(naphthalen-1-ylamino)thiazol-4(5H)-one]	0.24 mg/L (≈ 0.99 µM)	0.12 mg/L (≈ 0.495 µM)	0.12 mg/L (≈ 0.495 µM)	0.06 mg/L (≈ 0.248 µM)	0.24 mg/L (≈ 0.99 µM)	0.12 mg/L (≈ 0.495 µM)		0.12 mg/L (≈ 0.495 µM)	0.03 mg/L (≈ 0.124 µM)	24 ± 1 mm	1.6225	−3.0931	1.125	−0.163	
O=C1CSC(c2ccccc2)=N1 [Compound 11, 2-phenylthiazol-4(5H)-one]	0.48 mg/L (≈ 2.71 µM)	0.24 mg/L (≈ 1.35 µM)	0.48 mg/L (≈ 2.71 µM)	0.12 mg/L (≈ 0.677 µM)	0.24 mg/L (≈ 1.35 µM)	0.12 mg/L (≈ 0.677 µM)		0.12 mg/L (≈ 0.677 µM)	0.06 mg/L (≈ 0.339 µM)	18 ± 1 mm					
